The record followed here is publication PMC12663132, “Assessment of cytotoxicity of some synthetic compounds against breast carcinoma spheroids with subsequent analysis of pro-apoptotic and gene expression” (Scientific Reports, 2025).

In data set [1] the test system is MCF7. Kind of data set: Cytotoxicity on MCF7 monolayers (MTT assay). Conditions: for cytotoxicity at 50 µM: Homo sapiens, MCF7, 72 h, read-out: Mean of % cytotoxicity ± SD; for % inhibition 2D / Mean of % cytotoxicity ± SD: MCF7 monolayer; for % inhibition 2D: 50 µM; for Mean of % cytotoxicity ± SD: 50µM, 72 h, MTT. On the technique in general: Formazan colour is commonly taken as a measure of viable cells.
Protocol: (§1) Eighty pre-plated synthetic chemical compounds were screened on two human cell lines: MCF7 (ATCC® HTB-22™), a Caucasian breast adenocarcinoma model, and hTERT-RPE-1 (ATCC® CRL-4000™), a normal retinal epithelial cell line immortalized by hTERT telomerase. […] The cells were cultured in DMEM-F12 medium supplemented with L-glutamine and 10% fetal bovine serum, all were purchase from Biowest (Biotechnology company in Nuaillé, France), and maintained in a controlled incubator environment set at 37 °C with 5% CO2 and 95% humidity.
MCF7 cells were seeded in flat-bottom 96-well plates with a concentration of 20,000 cells/well, and were left overnight. The compounds were tested at a final concentration of 50 µM. Doxorubicin was used as a positive control and 0.5% DMSO as a negative control. The treatment duration was 72 h. The cytotoxicity was then assessed using the MTT assay, as described by Mosmann[43].

Data set [2] concerns MCF7 3D spheroids. Kind of data set: Cytotoxicity on MCF7 3D multicellular spheroids (acid phosphatase method). Conditions: for cytotoxicity at 50 µM: MCF7, 120 h, read-out: Mean of % cytotoxicity ± S.D; for % inhibition 3D / Mean of % cytotoxicity ± S.D: MCF7 3D spheroids; for % inhibition 3D: 50 µM; for Mean of % cytotoxicity ± S.D: 50µM, 120 h.
Protocol: as §1
3-D spheroid models were generated from MCF7 cancer and hTERT-RPE1 normal cells were seeded at 10,000 and 50,000 cells/well, respectively, in poly-HEMA coated round bottom plates according to the protocol previously mentioned[44]. The cells were incubated for 5 days to generate the spheroids with diameter of 500 ± 20 µm. The spheroids were imaged using Olympus S100, U-CMAD3 camera connected to Olympus inverted microscope and the diameter of the spheroids was measured using Cellscen-Entry software. Test compounds were added in triplicate to a final concentration of 50 µM and were incubated for 120 h. […] At the end of incubation, cytotoxicity was determined using the acid phosphatase method[45]. After washing twice with 250 μL PBS buffer, 100 μL of 0.1 M sodium citrate, 0.1% Triton X-100, p-nitrophenylphosphate (2 mg/ml) (Pierce Biotechnology Inc., Rockford, IL) was added to each well and incubated for 1.5 h at 37 °C. After incubation, 10 μL of 1N NaOH stop solution was added to each well, and absorbance was read at 405 nm. Cytotoxicity was calculated according to the following equation:

Each structure is given as a SMILES string.

Turning to `N#CC1(c2ccccc2)N=C2C=CC=CN2N=C1c1ccccc1` (stereo not drawn) [E06, 2,3-diphenyl-2H-pyrido[1,2-b][1,2,4]triazine-2-carbonitrile], the cytotoxicity at 50 µM in data set [1] worked out at 26.7 ± 1.18%; in data set [2] (Homo sapiens) it was 55 ± 1.6%.

As for `O=C(NNC1=Nc2ccccc2SC1)c1ccc(F)cc1` [G06, N'-(2H-1,4-benzothiazin-3-yl)-4-fluorobenzohydrazide], the cytotoxicity at 50 µM is 93.4 ± 1.6% in data set [1] and 52.3 ± 2.3% in data set [2] (Homo sapiens).

`O=C1C(=C2NC(c3ccccn3)C3C(=O)N(c4ccc(OC(F)(F)F)cc4)C(=O)C23)C(=O)c2ccccc21` (stereo not drawn) [F10, 4-(1,3-dioxo-2,3-dihydro-1H-inden-2-yliden)-6-(2-pyridyl)-2-[4-(trifluoromethoxy)phenyl]perhydropyrrolo [3,4-c]pyrrole-1,3-dione]: the cytotoxicity at 50 µM worked out at 100 ± 0.003% in data set [1] and 60.3 ± 1.1% in data set [2] (Homo sapiens).

Regarding `CCCc1cc(=O)oc2cc(OC(C)C(=O)NNS(=O)(=O)c3cccc(C(F)(F)F)c3)ccc12` (stereo not drawn) [D11, N'1-{2-[(2-oxo-4-propyl-2H-chromen-7-yl)oxy]propanoyl}-3-(trifluoromethyl)benzene-1-sulfonohydrazide], the cytotoxicity at 50 µM in data set [1] is 35.5 ± 0.35%; in data set [2] (Homo sapiens) it was 40.6 ± 0.11%.

As for `CC1(C)CC(=O)C2=C(C1)OC(N)=C(C#N)C2c1ccc(Cl)cc1` (stereo not drawn) [E11, 2-amino-4-(4-chlorophenyl)-7,7-dimethyl-5-oxo-5,6,7,8-tetrahydro-4H-chromene-3-carbonitrile], the figures for the cytotoxicity at 50 µM in data set [1] and in data set [2] (Homo sapiens) were 93.7 ± 1.29% and 66.4 ± 1.9%, respectively.

For `O=C1C2CC=CCC2C(=O)N1c1cccc(N2C(=O)C3CC=CCC3C2=O)n1` (stereo not drawn) [F04, 2-[6-(1,3-dioxo-2,3,3a,4,7,7a-hexahydro-1H-isoindol-2-yl)-2-pyridyl]-2,3,3a,4,7,7a-hexahydro-1H-isoindole-1,3-dione], the results for the cytotoxicity at 50 µM in data set [1] and in data set [2] (Homo sapiens) were 46.9 ± 2.6% and 29.8 ± 1.23%, respectively.

As for `Cc1cc(C)n(-c2ccc(S(N)(=O)=O)cc2)n1` [C07, 4-(3,5-dimethyl-1H-pyrazol-1-yl)benzene-1-sulfonamide], the results for the cytotoxicity at 50 µM in data set [1] and in data set [2] (Homo sapiens) were 0% and 55.4 ± 2.3%, respectively.

As for `Cc1nc(-c2ccc(S(=O)(=O)Nc3ccc4c(c3)OCCO4)s2)cs1` [G04, N-(2,3-dihydro-1,4-benzodioxin-6-yl)-5-(2-methyl-1,3-thiazol-4-yl)-2-thiophenesulfonamide], the cytotoxicity at 50 µM turned out to be 0% in data set [1] and 6.3 ± 0.3% in data set [2] (Homo sapiens).

Take `NNC(=O)Cc1ccccc1` [B10, 2-phenylacetohydrazide]: the cytotoxicity at 50 µM in data set [1] is 0%; in data set [2] (Homo sapiens), 48.2 ± 0.23%.

On to `Cc1ncc(CO)c(C=NO)c1O` [B04, 3-hydroxy-5-(hydroxymethyl)-2-methylisonicotinaldehyde oxime], for which the results for the cytotoxicity at 50 µM in data set [1] and in data set [2] (Homo sapiens) were -58.5 ± 0.003% and 49.3 ± 0.35%, respectively.

As for `O=[N+]([O-])c1ccc(N2CCC(n3cccc3)CC2)cc1` [A04, 1-(4-nitrophenyl)-4-(1H-pyrrol-1-yl)piperidine], the cytotoxicity at 50 µM in data set [1] was found to be 2.5 ± 0.35%; in data set [2] (Homo sapiens) it was 43.1 ± 0.23%.

In the case of `NC(=NOC(=O)Nc1ccc(OC(F)(F)F)cc1)c1cnccn1` [E08, N'-({[4-(trifluoromethoxy)anilino]carbonyl}oxy) pyrazine-2-carboximidamide], in data set [1], the “% inhibition 2D” value turned out to be 84.1% and the “Mean of % cytotoxicity ± SD” value turned out to be 84.1 ± 1.6%. Moreover, in data set [2], the “% inhibition 3D” value was 40.2% and the “Mean of % cytotoxicity ± S.D” value stood at 40.2 ± 3.8%.

Regarding `COc1cccc2c1C(=O)c1c(O)c3c(c(O)c1C2=O)C[C@@](O)(C(=O)CO)C[C@@H]3O[C@H]1C[C@H](N)[C@H](O)[C@H](C)O1` [doxorubicin, reference compound], the cytotoxicity at 50 µM in data set [1] came out at 57.6 ± 2.1%.

Regarding `Cc1nn(-c2ccccc2)nc1C(=O)Nc1cc(Cl)cc(Cl)c1` [A03, N4-(3,5-dichlorophenyl)-5-methyl-2-phenyl-2H-1,2,3-triazole-4-carboxamide], the cytotoxicity at 50 µM was determined as 94.2 ± 0.65% in data set [1] and 39.1 ± 0.24% in data set [2] (Homo sapiens).

In the case of `CCOC(=O)N1CCC(=NNc2ccc([N+](=O)[O-])cc2[N+](=O)[O-])CC1` [H10, ethyl 4-[2-(2,4-dinitrophenyl)hydrazono]piperidine-1-carboxylate], the results for the cytotoxicity at 50 µM in data set [1] and in data set [2] (Homo sapiens) were 27.5 ± 1.4% and 60.6 ± 1.1%, respectively.

As to `COC(=O)c1sccc1S(=O)(=O)Nc1ccc(-c2cn3c(n2)SCC3)cc1` [G05], in data set [1], the “% inhibition 2D” value came to 65.7% and the “Mean of % cytotoxicity ± SD” value turned out to be 65.7 ± 1.0%. In addition, in data set [2], the “% inhibition 3D” value was 35.1% and the “Mean of % cytotoxicity ± S.D” value worked out at 35.1 ± 0.6%.

Regarding `Clc1ccc(OCCCCCCCCCCOc2ccc(Cl)cc2)cc1` [H02, 1,10-bis(4-chlorophenoxy)decane], the cytotoxicity at 50 µM turned out to be 68.7 ± 2.7% in data set [1] and 3.5 ± 0.8% in data set [2] (Homo sapiens).

With `O=C(NCCc1ccncc1)C(F)(F)F` [B03, N1-[2-(4-pyridyl)ethyl]-2,2,2-trifluoroacetamide], the cytotoxicity at 50 µM in data set [1] is 0%; in data set [2] (Homo sapiens), 25.5 ± 0.11%.

As to `O=C(Nc1cccc(-c2ncon2)c1)C(Cl)(Cl)Cl` [D03, 2,2,2-trichloro-N-[3-(1,2,4-oxadiazol-3-yl)phenyl]acetamide], the figures for the cytotoxicity at 50 µM in data set [1] and in data set [2] (Homo sapiens) were 11.1 ± 0.9% and 23.5 ± 0.17%, respectively.

`N#CCc1ccc(NC(=O)Nc2ccc(OC(F)(F)F)cc2)cc1` [G08, N-[4-(cyanomethyl)phenyl]-N'-[4-(trifluoromethoxy)phenyl]urea]: the cytotoxicity at 50 µM in data set [1] is 82.8 ± 0.76%; in data set [2] (Homo sapiens), 56.2 ± 3%.

For the compound `Clc1ccc(CSc2ncnc3c2sc2nnc(-c4ccccc4)c(-c4ccccc4)c23)cc1` [A11, 8-[(4-chlorobenzyl)sulfanyl]-3,4-diphenylpyrimido [4',5':4,5]thieno[2,3-c]pyridazine], the cytotoxicity at 50 µM in data set [1] stood at 44.2 ± 1.6%; in data set [2] (Homo sapiens), 46.4 ± 1.3%.

For the compound `FC(F)(F)c1ccnc(NCc2ccco2)n1` [H11, N2-(2-furylmethyl)-4-(trifluoromethyl)pyrimidin-2-amine], the cytotoxicity at 50 µM is 0% in data set [1] and 68.5 ± 0.65% in data set [2] (Homo sapiens).

For `CC(=O)Nc1ccc(NC(=O)c2nccnc2C(=O)O)cn1` [C09, 3-({[6-(acetylamino)-3-pyridinyl]amino}carbonyl)-2-pyrazinecarboxylic acid], the cytotoxicity at 50 µM in data set [1] is 9.9 ± 1.1%; in data set [2] (Homo sapiens), -23.4 ± 0.5%. Besides, the inhibition (usually the relative decrease from the control value, in per cent) at 50 µM in data set [2] (Homo sapiens, MCF7, read-out: % inhibition 3D) is -23%.

As for `CC(=O)Nc1ccc(-c2ccccc2)cc1` [D05, N-[1,1'-biphenyl]-4-ylacetamide], the cytotoxicity at 50 µM stood at 49.7 ± 4.1% in data set [1] and 50.9 ± 2.4% in data set [2] (Homo sapiens).

`COC(=O)C(C#N)=Cc1cccn1-c1ccc(C(F)(F)F)cc1` [B05, methyl 2-cyano-3-{1-[4-(trifluoromethyl)phenyl]-1H-pyrrol-2-yl}acrylate]: the cytotoxicity at 50 µM in data set [1] stood at 91.3 ± 0.6%; in data set [2] (Homo sapiens), 42.1 ± 1.9%.

Take `Cc1ccc(OCC(O)CN2CCC(C(N)=O)CC2)c([N+](=O)[O-])c1` (stereo not drawn) [D09, 1-[2-hydroxy-3-(4-methyl-2-nitrophenoxy)propyl]piperidine-4-carboxamide]: the cytotoxicity at 50 µM in data set [1] was found to be 7.6 ± 0.2%; in data set [2] (Homo sapiens) it was 50 ± 0.35%.

`O=[N+]([O-])c1cc(C(F)(F)F)ccc1-n1ccc(C(F)(F)F)n1` [B11, 1-[2-nitro-4-(trifluoromethyl)phenyl]-3-(trifluoromethyl)-1H-pyrazole]: the cytotoxicity at 50 µM in data set [1] was 0%; in data set [2] (Homo sapiens) it was 30.5 ± 0.53%.

As to `CC(=O)Nc1ccc(C=C(C#N)C(N)=O)cc1` [G11, 3-[4-(acetylamino)phenyl]-2-cyanoacrylamide], the cytotoxicity at 50 µM in data set [1] came to 15.6 ± 1.7%; in data set [2] (Homo sapiens) it was 60.8 ± 1.23%.

Consider `Cc1ccc(S(=O)(=O)CCNC(=O)c2c(-c3c(Cl)cccc3Cl)noc2C)cc1` [F07, N4-{2-[(4-methylphenyl)sulfonyl]ethyl}-3-(2,6-dichlorophenyl)-5-methylisoxazole-4-carboxamide], for which the values for the cytotoxicity at 50 µM in data set [1] and in data set [2] (Homo sapiens) were 4.4 ± 0.118% and 54.2 ± 0.53%, respectively.

As for `Nc1ccc(-c2ccc(N)c([N+](=O)[O-])c2)cc1[N+](=O)[O-]` [A06, 3,3'-dinitro[1,1'-biphenyl]-4,4'-diamine], the cytotoxicity at 50 µM in data set [1] was found to be 82.4 ± 0.41%; in data set [2] (Homo sapiens), 60.8 ± 1%.

`O=C(Nc1ccc2c(c1)COCO2)c1cc2ccccc2oc1=O` [H04, N3-(4H-1,3-benzodioxin-6-yl)-2-oxo-2H-chromene-3-carboxamide]: the cytotoxicity at 50 µM in data set [1] was determined as 46 ± 0.8%; in data set [2] (Homo sapiens), 28 ± 0.6%.

Turning to `COc1cc(-n2c(S)nnc2CCc2nc(-c3ccc(Cl)cc3)no2)c(OC)cc1Cl` [D07, 4-(4-chloro-2,5-dimethoxyphenyl)-5-{2-[3-(4-chlorophenyl)-1,2,4-oxadiazol-5-yl]ethyl}-4H-1,2,4-triazole-3-thiol], the cytotoxicity at 50 µM was determined as 88.7 ± 0.23% in data set [1] and 50.1 ± 2.3% in data set [2] (Homo sapiens).

In the case of `O=C(O)c1ccc(-c2ccsc2)cc1` [H06, 4-(3-thienyl)benzoic acid], the cytotoxicity at 50 µM in data set [1] was 7.8 ± 0.23%; in data set [2] (Homo sapiens), 26.1 ± 0.4%.

Take `c1cc2c(cc1N=C1SCC3CCCCN13)OCO2` (stereo not drawn) [B08, N-hexahydro[1,3]thiazolo[3,4-a]pyridin-3-ylidene-1,3-benzodioxol-5-amine]: the cytotoxicity at 50 µM in data set [1] worked out at 8.5 ± 0.47%; in data set [2] (Homo sapiens), 53.1 ± 0.6%.

In the case of `CCOc1nc2ccccc2nc1OCC` [E04, 2,3-diethoxyquinoxaline], the cytotoxicity at 50 µM was determined as 62.6 ± 3.1% in data set [1] and 42 ± 1.1% in data set [2] (Homo sapiens).

Turning to `O=C(NNC(=O)c1ccc(OC(F)(F)F)cc1)c1ccc(Cl)cc1` [C11, N'1-(4-chlorobenzoyl)-4-(trifluoromethoxy)benzene-1-carbohydrazide], the cytotoxicity at 50 µM in data set [1] was 83.1 ± 1.17%; in data set [2] (Homo sapiens) it was 66.5 ± 0.24%.

In the case of `Cn1c(=NN=c2oc3ccccc3n2C)oc2ccccc21` [C03, 1,2-di(3-methyl-2,3-dihydro-1,3-benzoxazol-2-yliden)hydrazine], the cytotoxicity at 50 µM in data set [1] was 86.6 ± 9.3%; in data set [2] (Homo sapiens) it was 3.4 ± 0.17%.
